Laboratory results: patent US11285127B2, “Compositions and methods for lowering triglycerides without raising LDL-C levels in a subject on concomitant statin therapy” (Amarin Pharmaceuticals Ireland Limited, priority 2013, dated 2022)

Tested on: patients with fasting triglyceride levels >200 mg/dl and <500 mg/dl despite statin therapy
Test: 12-week study: lipoprotein particle concentration (VLDL, LDL, HDL; nuclear magnetic resonance)
Assay type: in vivo, human
Conditions: for LDL Particle Concentration, Week 12 EP Median (IQR): MITT; for LDL Particle Concentration, Percent change from Baseline, Median (IQR) / LDL Particle Concentration, Difference from placebo, Estimated median: Week 12, MITT; for LDL Particle Concentration, Difference from placebo, Estimated median: difference in percent change
Source text: Parameters (a)-(z) can be measured in accordance with any clinically acceptable methodology. For example, triglycerides, total cholesterol, HDL-C and fasting blood sugar can be sample from serum and analyzed using standard photometry techniques. VLDL-TG, LDL-C and VLDL-C can be calculated or determined using serum lipoprotein fractionation by preparative ultracentrifugation and subsequent quantitative analysis by refractometry or by analytic ultracentrifugal methodology. Apo A1, Apo B and hsCRP can be determined from serum using standard nephelometry techniques. Lipoprotein (a) can be determined from serum using standard turbidimetric immunoassay techniques. LDL particle number and particle size can be determined using nuclear magnetic resonance (NMR) spectrometry. Remnants lipoproteins and LDL-phospholipase A2 can be determined from EDTA plasma or serum and serum, respectively, using enzymatic immunoseparation techniques. Oxidized LDL, intercellular adhesion molecule-1 and interleukin-2 levels can be determined from serum using standard enzyme immunoassay techniques. These techniques are described in detail in standard textbooks, for example Tietz Fundamentals of Clinical Chemistry, 6th Ed. (Burtis, Ashwood and Borter Eds.), WB Saunders Company.
A multi-center, placebo-controlled, randomized, double-blind, 12-week study was performed to evaluate the efficacy and safety of >96% E-EPA in patients with fasting triglyceride levels >200 mg/dl and <500 mg/dl despite statin therapy (the mean of two qualifying entry values needed to be >185 mg/dl and at least one of the values needed to be >200 mg/dl). The primary objective of the study was to determine the efficacy of >96% E-EPA 2 g daily and 4 g daily, compared to placebo, in lowering fasting TG levels in patients with high risk for cardiovascular disease and with fasting TG levels 200 mg/dl and <500 mg/dl, despite treatment to LDL-C goal on statin therapy.
The secondary objectives of this study were the following: • 1. To determine the safety and tolerability of >96% E-EPA 2 g daily and 4 g daily; • 2. To determine the effect of >96% E-EPA on lipid and apolipoprotein profiles including total cholesterol (TC), non-high-density lipoprotein cholesterol (non-HDL-C), low density lipoprotein cholesterol (LDL-C), high density lipoprotein cholesterol (HDL-C), and […]; • 3. To determine the effect of >96% E-EPA on lipoprotein associated phospholipase A2 (Lp-PLA2) from baseline to week 12; • 4. To determine the effect of >96% E-EPA on low-density lipoprotein (LDL) particle number and size; • 5. To determine the effect of >96% E-EPA on oxidized LDL; • 6. To determine the effect of >96% E-EPA on fasting plasma glucose (FPG) and hemoglobin A1c (HbA1c); • 7. To determine the effect of >96% E-EPA on insulin resistance; • 8. To determine the effect of >96% E-EPA on high-sensitivity C-reactive protein (hsCRP); • 9. To determine the effects of >96% E-EPA 2 g daily and 4 g daily on the incorporation of fatty acids into red blood cell membranes and into plasma phospholipids; • 10. To explore the relationship between baseline fasting TG levels and the reduction in fasting TG levels; and • 11. To explore the relationship between changes of fatty acid concentrations in plasma and red blood cell membranes, and the reduction in fasting TG levels.
The primary efficacy variable for the double-blind treatment period was percent change in TG from baseline to Week 12 endpoint. […]

[1] = 2 g/day, 12 weeks, placebo-adjusted Hodges-Lehmann median
[2] = 4 g/day, 12 weeks, placebo-adjusted Hodges-Lehmann median
[3] = 4 g/day, 12 weeks, placebo-adjusted Hodges-Lehmann median, listed as IPE
[4] = IPE 2 g/day (n = 222), 12 weeks

## CC/C=C\C/C=C\C/C=C\C/C=C\C/C=C\CCCC(=O)OCC [AMR101, ethyl eicosapentaenoate]
[1]
  IDL particle concentration, Median Change From Baseline IPE 2 g/day vs Placebo: 8.6%
  Large HDL particle concentration, Median Change From Baseline IPE 2 g/day vs Placebo: −13.5%
  Large LDL particle concentration, Median Change From Baseline IPE 2 g/day vs Placebo: 26.5%
  Large VLDL particle concentration, Median Change From Baseline IPE 2 g/day vs Placebo: −24.2%
  Medium HDL particle concentration, Median Change From Baseline IPE 2 g/day vs Placebo: −4.5%
  Medium VLDL particle concentration, Median Change From Baseline IPE 2 g/day vs Placebo: 2.6%
  Small HDL particle concentration, Median Change From Baseline IPE 2 g/day vs Placebo: −0.2%
  Small LDL particle concentration, Median Change From Baseline IPE 2 g/day vs Placebo: −14.7%
  Small VLDL particle concentration, Median Change From Baseline IPE 2 g/day vs Placebo: 16.5%
  Total HDL particle concentration, Median Change From Baseline IPE 2 g/day vs Placebo: −3.1%
  Total LDL particle concentration, Median Change From Baseline IPE 2 g/day vs Placebo: −7.5%
  Total VLDL particle concentration, Median Change From Baseline IPE 2 g/day vs Placebo: 1.8%
4 g per day, 12 weeks
  Reduction of median concentration of small LDL particles over baseline when adjusted for placebo control: 13.5%
  Reduction of median concentration of total HDL over baseline when adjusted for placebo: 7.4%
  Reduction of median concentration of total LDL over baseline when adjusted for placebo: 7.7%
  Reduction of median concentration of total VLDL over baseline when adjusted for placebo: 12.2%
[2]
  IDL particle concentration, Median Change From Baseline IPE 4 g/day vs Placebo: 10.0%
  Medium HDL particle concentration, Median Change From Baseline IPE 4 g/day vs Placebo: −6.5%
  Small HDL particle concentration, Median Change From Baseline IPE 4 g/day vs Placebo: −2.8%
  Small LDL particle concentration, Median Change From Baseline IPE 4 g/day vs Placebo: −13.5%
  Small VLDL particle concentration, Median Change From Baseline IPE 4 g/day vs Placebo: 2.8%
  Total HDL particle concentration, Median Change From Baseline IPE 4 g/day vs Placebo: −7.4%
  Total LDL particle concentration, Median Change From Baseline IPE 4 g/day vs Placebo: −7.7%
  Total VLDL particle concentration, Median Change From Baseline IPE 4 g/day vs Placebo: −12.2%
[3]
  Large HDL particle concentration, Median Change From Baseline IPE 4 g/day vs Placebo: −31.0%
  Large LDL particle concentration, Median Change From Baseline IPE 4 g/day vs Placebo: 34.2%
  Large VLDL particle concentration, Median Change From Baseline IPE 4 g/day vs Placebo: −46.4%
  Medium VLDL particle concentration, Median Change From Baseline IPE 4 g/day vs Placebo: −12.1%
  Small LDL particle concentration, Median Change From Baseline IPE 4 g/day vs Placebo: −13.5%
  Total HDL particle concentration, Median Change From Baseline IPE 4 g/day vs Placebo: −7.4%
  Total LDL particle concentration, Median Change From Baseline IPE 4 g/day vs Placebo: −7.7%
  Total VLDL particle concentration, Median Change From Baseline IPE 4 g/day vs Placebo: −12.2%
AMR101 2g/d + statin, n 222
  LDL Particle Concentration, Week 12 EP Median (IQR): 1215.0 (355.0) nmol/L
AMR101 2g/d + statin
  LDL Particle Concentration, Percent change from Baseline, Median (IQR): 4.7 (29.2) %
  LDL Particle Concentration, Difference from placebo, Estimated median: −7.5
AMR101 4g/d + statin, n 216
  LDL Particle Concentration, Week 12 EP Median (IQR): 1190.5 (512.0) nmol/L
AMR101 4g/d + statin
  LDL Particle Concentration, Percent change from Baseline, Median (IQR): 3.8 (31.8) %
  LDL Particle Concentration, Difference from placebo, Estimated median: −7.7
[4]
  IDL particle concentration, Change from Baseline % (median): 10.5%
  IDL particle concentration, End of Treatment (median): 63.5 nmol/L
  Large HDL particle concentration, Change from Baseline % (median): −4.0%
  Large HDL particle concentration, End of Treatment (median): 2.4 µmol/L
  Large LDL particle concentration, Change from Baseline % (median): 47.7%
  Large LDL particle concentration, End of Treatment (median): 202.0 nmol/L
  Large VLDL particle concentration, Change from Baseline % (median): −19.7%
  Large VLDL particle concentration, End of Treatment (median): 10 nM
  Medium HDL particle concentration, Change from Baseline % (median): 2.9%
  Medium HDL particle concentration, End of Treatment (median): 7.2 µmol/L
  Medium VLDL particle concentration, Change from Baseline % (median): 7.9%
  Medium VLDL particle concentration, End of Treatment (median): 59.6 nmol/L
  Small HDL particle concentration, Change from Baseline % (median): −0.6%
  Small HDL particle concentration, End of Treatment (median): 23.8 µmol/L
  Small LDL particle concentration, Change from Baseline % (median): −4.3%
  Small LDL particle concentration, End of Treatment (median): 920.5 nmol/L
  Small VLDL particle concentration, Change from Baseline % (median): 22.1%
  Small VLDL particle concentration, End of Treatment (median): 49.6 nmol/L
  Total HDL particle concentration, Change from Baseline % (median): 0.7%
  Total HDL particle concentration, End of Treatment (median): 34.7 µmol/L
  Total LDL particle concentration, Change from Baseline % (median): 4.7%
  Total LDL particle concentration, End of Treatment (median): 1215 nmol/L
  Total VLDL particle concentration, Change from Baseline % (median): 12.0%
